Like-named read-outs stand apart in the source and are kept apart here.
Key:
[1] = test system: U-937; experiment: MTS cell proliferation assay, U-937; assay type: cell-based; settings: Homo sapiens; U-937, 72 hr
Procedure: (§1) Cell proliferation was measured using the CellTiter 96 Aqueous Non-Radioactive Cell Proliferation Assay (Promega). The CellTiter 96® AQueous Assay is composed of solutions of a tetrazolium compound [3-(4,5-dimethylthiazol-2-yl)-5-(3-carboxymethoxyphenyl)-2-(4-sulfophenyl)-2H-tetrazolium, inner salt; MTS] and an electron coupling reagent (phenazine methosulfate) PMS. MTS is bioreduced by cells into a formazan product that is soluble in tissue culture medium. The absorbance of the formazan product at 490 nm can be measured directly from assay plates without additional processing. The quantity of formazan product as measured by the amount of 490 nm absorbance is directly proportional to the number of living cells in culture. Cells were seeded into 96-well or 384-well clear plates in a volume of 200 μL (96-well) or 50 μL (384-well) at optimized densities ranging from 1,000 to 40,000 cells per well for 96-well plates or 1,200 to 25,000 cells per well for 384-well plates depending on cell-line. After 4-6 hr recovery, serially diluted compounds in DMSO were added to the cells using (0.1% v/v final DMSO concentration). Cells were then grown at 37° C. in a humidified incubator with 5% CO2 for 72 hr. A 20:1 [3-(4,5-dimethylthiazol-2-yl)-5-(3-carboxymethoxyphenyl)-2-(4-sulfophenyl)-2H-tetrazolium](MTS):phenazine methosulfate (PMS) solution in DPBS was made immediately before use, added to each well, and cells were incubated for 1.5 hr at 37° C. The absorbance at 490 nm was then measured using a platereader. Absorbance values were normalized as percent of control (cells incubated in the presence of 0.1% v/v DMSO). Sigmoidal dose-response curves were plotted using log(inhibitor) vs. response—Variable slope (four parameters) model with a top value constrained to 100% (GraphPad Prism version 6.00 for Windows, GraphPad Software, La Jolla California USA). […] Curves for compounds that reached a plateau were matched exactly to the measurement points. […]

[2] = test system: JJN3; experiment: MTS cell proliferation assay, JJN3; assay type: cell-based; settings: Homo sapiens, JJN-3; JJN3, 72 hr
Procedure: as §1

[3] = test system: KG1; experiment: MTS cell proliferation assay, KG1; assay type: cell-based; settings: Homo sapiens, KG-1; KG1, 72 hr
Procedure: as §1

[4] = test system: U-266; experiment: MTS cell proliferation assay, U-266; assay type: cell-based; settings: Homo sapiens; U-266, 72 hr
Procedure: as §1

[5] = test system: hematologic tumor cell lines; experiment: MTS cell proliferation assay, panel of hematologic cancer cell lines; assay type: cell-based
Procedure: (§2) Cell proliferation was measured using the CellTiter 96 Aqueous Non-Radioactive Cell Proliferation Assay (Promega). The CellTiter 96® AQueous Assay is composed of solutions of a tetrazolium compound [3-(4,5-dimethylthiazol-2-yl)-5-(3-carboxymethoxyphenyl)-2-(4-sulfophenyl)-2H-tetrazolium, inner salt; MTS] and an electron coupling reagent (phenazine methosulfate) PMS. MTS is bioreduced by cells into a formazan product that is soluble in tissue culture medium. The absorbance of the formazan product at 490 nm can be measured directly from assay plates without additional processing. The quantity of formazan product as measured by the amount of 490 nm absorbance is directly proportional to the number of living cells in culture. Cells were seeded into 96-well or 384-well clear plates in a volume of 200 μL (96-well) or 50 μL (384-well) at optimized densities ranging from 1,000 to 40,000 cells per well for 96-well plates or 1,200 to 25,000 cells per well for 384-well plates depending on cell-line. After 4-6 hr recovery, serially diluted compounds in DMSO were added to the cells using (0.1% v/v final DMSO concentration). Cells were then grown at 37° C. in a humidified incubator with 5% CO2 for 72 hr. A 20:1 [3-(4,5-dimethylthiazol-2-yl)-5-(3-carboxymethoxyphenyl)-2-(4-sulfophenyl)-2H-tetrazolium](MTS):phenazine methosulfate (PMS) solution in DPBS was made immediately before use, added to each well, and cells were incubated for 1.5 hr at 37° C. The absorbance at 490 nm was then measured using a platereader. Absorbance values were normalized as percent of control (cells incubated in the presence of 0.1% v/v DMSO). Sigmoidal dose-response curves were plotted using log(inhibitor) vs. response—Variable slope (four parameters) model with a top value constrained to 100% (GraphPad Prism version 6.00 for Windows, GraphPad Software, La Jolla California USA). […] Curves for compounds that reached a plateau were matched exactly to the measurement points. […] To determine potential of compounds of the invention to affect viability of hematological cancers, cell lines representing various tumor types were selected and tested. Human cell lines tested were: MOLM-13 (acute myeloid leukemia (AML)), MV4-11 (AML), U-2932 (ABC-diffuse large B cell lymphoma), U-937 (histiocytic lymphoma), U-266 (multiple myeloma), RPMI-8226 (multiple myeloma), CMK (megakaryoblastic cell line), SU-DHL-4 (GCB-diffuse large B cell lymphoma), KG1 (AML), Mec-1 (chronic B-cell leukemia), MOLM-16 (AML), Jeko (B-cell lymphoma), WSU-DLCL2 (B-cell lymphoma), JJN3 (plasma cell leukemia), SU-DHL-6 (GCB-diffuse large B cell lymphoma), and Z-138 (mantle cell lymphoma). In addition, two murine cell lines were tested: A20 […].

[6] = test system: U-2932; experiment: MTS cell proliferation assay, U-2932; assay type: cell-based; settings: Homo sapiens, U2932; U-2932, 72 hr
Procedure: as §2

[7] = test system: Mec-1; experiment: MTS cell proliferation assay, Mec-1; assay type: cell-based; settings: Homo sapiens, MEC1; Mec-1, 72 hr
Procedure: as §1

[8] = test system: Molm-13; experiment: MTS cell proliferation assay, Molm-13; assay type: cell-based; settings: Homo sapiens; Molm-13, 72 hr
Procedure: as §2

[9] = test system: Jeko; experiment: MTS cell proliferation assay, Jeko; assay type: cell-based; settings: Homo sapiens, 72 hr
Procedure: as §2

[10] = test system: panel of 270 different human kinases; experiment: Kinase selectivity panel (Upstate/Millipore); assay type: biochemical; settings: 10 μM, panel of 270 kinases
Procedure: The selectivity of Compound 1 and Compound 2 was evaluated in a panel of 270 different human kinases offered by Upstate (now Millipore).

[11] = test system: MV4-11; experiment: MTS cell proliferation assay, MV4-11; assay type: cell-based, human; settings: Homo sapiens; MV4-11, 72 hr; read-out: MTS proliferation assay
Procedure: Cell proliferation was measured using the CellTiter 96 Aqueous Non-Radioactive Cell Proliferation Assay (Promega). […] MTS is bioreduced by cells into a formazan product that is soluble in tissue culture medium. The absorbance of the formazan product at 490 nm can be measured directly from assay plates without additional processing. The quantity of formazan product as measured by the amount of 490 nm absorbance is directly proportional to the number of living cells in culture. Cells were seeded into 96-well or 384-well clear plates in a volume of 200 μL (96-well) or 50 μL (384-well) at optimized densities ranging from 1,000 to 40,000 cells per well for 96-well plates or 1,200 to 25,000 cells per well for 384-well plates depending on cell-line. After 4-6 hr recovery, serially diluted compounds in DMSO were added to the cells using (0.1% v/v final DMSO concentration). Cells were then grown at 37° C. in a humidified incubator with 5% CO2 for 72 hr. A 20:1 [3-(4,5-dimethylthiazol-2-yl)-5-(3-carboxymethoxyphenyl)-2-(4-sulfophenyl)-2H-tetrazolium](MTS):phenazine methosulfate (PMS) solution in DPBS was made immediately before use, added to each well, and cells were incubated for 1.5 hr at 37° C. The absorbance at 490 nm was then measured using a platereader. Absorbance values were normalized as percent of control (cells incubated in the presence of 0.1% v/v DMSO). Sigmoidal dose-response curves were plotted using log(inhibitor) vs. response—Variable slope (four parameters) model with a top value constrained to 100% (GraphPad Prism version 6.00 for Windows, GraphPad Software, La Jolla California USA). […] To determine potential of compounds of the invention to affect viability of hematological cancers, cell lines representing various tumor types were selected and tested. […] In addition, two murine cell lines were tested: A20 […].

[12] = range against the various cell lines of Table 1, read-out: inhibition of cell proliferation EC50

C[C@H](NC(=O)c1nc(C#N)cnc1NCc1ccc(-c2cnc3[nH]nc(N)c3n2)cc1)c1ccc(F)c(F)c1 [Compound 1, 3-[4-(3-Amino-1H-pyrazolo[3,4-b]pyrazin-5-yl)-benzylamino]-6-cyano-pyrazine-2-carboxylic acid [1-(3,4-difluoro-phenyl)-ethyl]-amide]
EC50 [1]: 123 nM | EC50 [2]: 846 nM | EC50 [3]: 175 nM | EC50 [4]: 226 nM | EC50 [5, 12]: 3 to 853 nM | EC50 [6]: 108 nM | EC50 [7]: 415 nM | EC50 [8]: 6 nM | EC50 [9]: 286 nM | number of kinases with inhibition greater than or equal to 90% (including PDK1) [10]: 18 | EC50 [11]: 5 nM

CNc1n[nH]c2ncc(-c3ccc(CNc4ncc(C#N)nc4C(=O)N[C@@H](C)c4ccc(F)c(F)c4)cc3)cc12 [Compound 2, 6-Cyano-3-[4-(3-methylamino-1H-pyrazolo[3,4-b]pyridin-5-yl)-benzylamino]-pyrazine-2-carboxylic acid [1-(3,4-difluoro-phenyl)-ethyl]-amide]
EC50 [1]: 74 nM | EC50 [2]: 453 nM | EC50 [3]: 195 nM | EC50 [4]: 130 nM | fold more potent than GSK2334470 in viability assays ([5]; 72 hours viability assays): at least 10 fold | number of cell lines with growth inhibition at concentrations less than 500 nM ([5]; out of 16 cell lines): 15 | EC50 ([5]; panel of more than 20 cell lines derived from hematologic cancers, read-out: anti-proliferative activity EC50): 3 to 900 nM | EC50 [5, 12]: 3 to 853 nM | EC50 ([5]; range over 16 cell lines, FIG. 3, read-out: potency in the cell proliferation assay (EC50)): < 1000 nM | EC50 [6]: 56 nM | EC50 [7]: 215 nM | EC50 [8]: 3 nM | EC50 [9]: 279 nM | number of kinases with inhibition greater than or equal to 90% (including PDK1) [10]: 20 | EC50 [11]: 7 nM

Source: patent publication US20240207258A1, “HETEROCYCLIC PDK1 INHIBITORS FOR USE TO TREAT CANCER” (Viracta Therapeutics, Inc., priority 2015, published 2024)
